Data: PMC7407272, “Induction of Lysosome Membrane Permeabilization as a Therapeutic Strategy to Target Pancreatic Cancer Stem Cells” (Cancers, 2020)

Experiments:
Assay in all cases: KINOMEscan
Assay type in all cases: binding
Details in all cases: read-out: % Ctrl
FLT3(D835H) = biological target: T1, FLT3(D835H) (Homo sapiens, UniProt P36888, D835H)
T1 construct: purchased DiscoveRx KINOMEscan

EPHA5 = biological target: T2, EPHA5 (Homo sapiens, UniProt P54756)
T2 construct: purchased DiscoveRx KINOMEscan

ACVRL1 = biological target: T3, ACVRL1 (Homo sapiens, UniProt P37023)
T3 construct: purchased DiscoveRx KINOMEscan

ZAK = biological target: T4, ZAK (Homo sapiens, UniProt Q9NYL2)
T4 construct: purchased DiscoveRx KINOMEscan
T4 sequence (Q9NYL2 whole entry): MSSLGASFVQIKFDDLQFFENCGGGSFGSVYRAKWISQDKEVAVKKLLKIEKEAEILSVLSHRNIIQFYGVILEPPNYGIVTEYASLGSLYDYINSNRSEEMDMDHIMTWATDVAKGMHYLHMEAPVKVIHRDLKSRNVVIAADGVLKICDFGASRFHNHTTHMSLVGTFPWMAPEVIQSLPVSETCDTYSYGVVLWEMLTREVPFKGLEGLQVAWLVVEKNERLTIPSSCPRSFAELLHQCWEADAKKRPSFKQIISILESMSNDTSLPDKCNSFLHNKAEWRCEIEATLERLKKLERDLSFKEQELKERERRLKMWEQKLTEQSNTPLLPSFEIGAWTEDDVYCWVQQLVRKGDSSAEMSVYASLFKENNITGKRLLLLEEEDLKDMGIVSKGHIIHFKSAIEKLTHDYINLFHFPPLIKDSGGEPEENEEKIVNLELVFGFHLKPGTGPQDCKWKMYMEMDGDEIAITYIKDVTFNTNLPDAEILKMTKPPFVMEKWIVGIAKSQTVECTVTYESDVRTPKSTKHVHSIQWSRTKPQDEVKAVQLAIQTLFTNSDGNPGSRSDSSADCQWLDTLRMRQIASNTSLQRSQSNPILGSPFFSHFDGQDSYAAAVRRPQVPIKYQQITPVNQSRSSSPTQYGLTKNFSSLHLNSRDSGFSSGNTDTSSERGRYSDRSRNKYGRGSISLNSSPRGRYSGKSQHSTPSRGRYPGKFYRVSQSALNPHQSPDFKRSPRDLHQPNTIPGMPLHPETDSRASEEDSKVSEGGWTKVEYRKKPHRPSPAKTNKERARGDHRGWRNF

MAP4K3 = biological target: T5, MAP4K3 (Homo sapiens, UniProt Q8IVH8)
T5 construct: purchased DiscoveRx KINOMEscan

CLK2 = biological target: T6, CLK2 (Homo sapiens, UniProt P49760)
T6 construct: purchased DiscoveRx KINOMEscan

SRPK1 = biological target: T7, SRPK1 (Homo sapiens, UniProt Q96SB4)
T7 construct: purchased DiscoveRx KINOMEscan

NEK6 = biological target: T8, NEK6 (Homo sapiens, UniProt Q9HC98)
T8 construct: purchased DiscoveRx KINOMEscan

CDK3 = biological target: T9, CDK3 (Homo sapiens, UniProt Q00526)
T9 construct: purchased DiscoveRx KINOMEscan

ABL1(H396P)-nonP = biological target: T10, ABL1(H396P)-nonP (Homo sapiens, UniProt P00519, H396P)
T10 construct: purchased DiscoveRx KINOMEscan

PIM3 = PIM3 (Homo sapiens, UniProt Q86V86); set-up: purchased DiscoveRx KINOMEscan
DYRK1B = biological target: T11, DYRK1B (Homo sapiens, UniProt Q9Y463)
T11 construct: purchased DiscoveRx KINOMEscan

ERK8 = biological target: T12, ERK8 (Homo sapiens, UniProt Q8TD08)
T12 construct: purchased DiscoveRx KINOMEscan

MYO3A = biological target: T13, MYO3A (Homo sapiens, UniProt Q8NEV4)
T13 construct: purchased DiscoveRx KINOMEscan

PIM1 = PIM1 (Homo sapiens, UniProt P11309); set-up: purchased DiscoveRx KINOMEscan
CSK = biological target: T14, CSK (Homo sapiens, UniProt P41240)
T14 construct: purchased DiscoveRx KINOMEscan

FYN = biological target: T15, FYN (Homo sapiens, UniProt P06241)
T15 construct: purchased DiscoveRx KINOMEscan

PRKG2 = biological target: T16, PRKG2 (Homo sapiens, UniProt Q13237)
T16 construct: purchased DiscoveRx KINOMEscan
T16 sequence (Q13237 whole entry): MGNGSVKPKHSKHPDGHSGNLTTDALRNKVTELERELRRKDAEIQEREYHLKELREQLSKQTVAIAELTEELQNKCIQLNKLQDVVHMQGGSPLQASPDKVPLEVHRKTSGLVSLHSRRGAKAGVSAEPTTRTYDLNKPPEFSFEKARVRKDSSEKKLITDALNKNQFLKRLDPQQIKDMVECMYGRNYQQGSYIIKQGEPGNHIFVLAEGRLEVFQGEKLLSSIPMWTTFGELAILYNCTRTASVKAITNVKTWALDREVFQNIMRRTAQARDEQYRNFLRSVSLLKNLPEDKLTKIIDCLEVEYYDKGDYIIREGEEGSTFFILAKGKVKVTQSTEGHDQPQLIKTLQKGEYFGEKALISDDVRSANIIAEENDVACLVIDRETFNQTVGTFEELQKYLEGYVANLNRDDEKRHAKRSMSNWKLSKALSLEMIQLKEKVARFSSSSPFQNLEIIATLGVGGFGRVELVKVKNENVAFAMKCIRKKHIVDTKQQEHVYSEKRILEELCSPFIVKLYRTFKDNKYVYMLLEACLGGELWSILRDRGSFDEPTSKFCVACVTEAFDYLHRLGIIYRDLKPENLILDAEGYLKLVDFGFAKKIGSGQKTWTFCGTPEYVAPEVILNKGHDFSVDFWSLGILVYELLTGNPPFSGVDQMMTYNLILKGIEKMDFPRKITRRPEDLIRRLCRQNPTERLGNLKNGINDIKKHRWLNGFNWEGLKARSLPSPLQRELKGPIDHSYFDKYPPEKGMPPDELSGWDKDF

CLK4 = biological target: T17, CLK4 (Homo sapiens, UniProt Q9HAZ1)
T17 construct: purchased DiscoveRx KINOMEscan

MLK3 = biological target: T18, MLK3 (Homo sapiens, UniProt Q16584)
T18 construct: purchased DiscoveRx KINOMEscan

NDR1 = biological target: T19, NDR1 (Homo sapiens, UniProt Q15208)
T19 construct: purchased DiscoveRx KINOMEscan

NDR2 = biological target: T20, NDR2 (Homo sapiens, UniProt Q9Y2H1)
T20 construct: purchased DiscoveRx KINOMEscan

JAK2(JH1D.-cat.) = biological target: T21, JAK2(JH1D.-cat.) (Homo sapiens, UniProt O60674)
T21 construct: JAK2(JH1D.-cat.); purchased DiscoveRx KINOMEscan

KIT(L576P) = biological target: T22, KIT(L576P) (Homo sapiens, UniProt P10721, L576P)
T22 construct: purchased DiscoveRx KINOMEscan

ERBB4 = biological target: T23, ERBB4 (Homo sapiens, UniProt Q15303)
T23 construct: purchased DiscoveRx KINOMEscan

LIMK2 = biological target: T24, LIMK2 (Homo sapiens, UniProt P53671)
T24 construct: purchased DiscoveRx KINOMEscan

MLK1 = biological target: T25, MLK1 (Homo sapiens, UniProt P80192)
T25 construct: purchased DiscoveRx KINOMEscan
T25 sequence (P80192 whole entry): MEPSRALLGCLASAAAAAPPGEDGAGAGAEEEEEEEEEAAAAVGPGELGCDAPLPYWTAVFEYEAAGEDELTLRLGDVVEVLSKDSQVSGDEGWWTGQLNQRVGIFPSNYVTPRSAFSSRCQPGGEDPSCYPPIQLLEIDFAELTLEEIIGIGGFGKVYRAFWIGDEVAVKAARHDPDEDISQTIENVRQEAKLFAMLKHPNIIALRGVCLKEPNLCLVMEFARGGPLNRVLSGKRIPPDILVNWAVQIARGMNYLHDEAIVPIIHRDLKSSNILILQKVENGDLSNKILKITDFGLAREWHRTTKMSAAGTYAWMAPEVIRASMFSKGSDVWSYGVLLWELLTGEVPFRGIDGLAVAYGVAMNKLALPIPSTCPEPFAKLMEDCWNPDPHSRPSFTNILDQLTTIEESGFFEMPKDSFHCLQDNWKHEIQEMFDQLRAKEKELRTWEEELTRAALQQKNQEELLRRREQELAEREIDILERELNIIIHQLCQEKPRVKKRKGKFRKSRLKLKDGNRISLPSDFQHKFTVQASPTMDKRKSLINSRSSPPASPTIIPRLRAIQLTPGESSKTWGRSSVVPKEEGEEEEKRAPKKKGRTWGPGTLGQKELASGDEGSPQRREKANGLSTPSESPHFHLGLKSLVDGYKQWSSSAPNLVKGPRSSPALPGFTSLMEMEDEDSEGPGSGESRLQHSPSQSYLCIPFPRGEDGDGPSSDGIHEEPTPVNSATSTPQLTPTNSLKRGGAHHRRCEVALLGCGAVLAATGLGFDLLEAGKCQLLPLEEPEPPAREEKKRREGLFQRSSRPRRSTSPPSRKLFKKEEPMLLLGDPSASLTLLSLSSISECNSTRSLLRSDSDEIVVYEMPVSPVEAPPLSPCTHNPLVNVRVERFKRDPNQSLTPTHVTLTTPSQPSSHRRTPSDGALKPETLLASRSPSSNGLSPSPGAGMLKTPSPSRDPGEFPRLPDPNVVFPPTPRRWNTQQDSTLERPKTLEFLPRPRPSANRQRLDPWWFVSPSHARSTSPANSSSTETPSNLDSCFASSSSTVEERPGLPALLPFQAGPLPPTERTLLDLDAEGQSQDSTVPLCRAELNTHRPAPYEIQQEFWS

ULK2 = biological target: T26, ULK2 (Homo sapiens, UniProt Q8IYT8)
T26 construct: purchased DiscoveRx KINOMEscan

MUSK = biological target: T27, MUSK (Homo sapiens, UniProt O15146)
T27 construct: purchased DiscoveRx KINOMEscan

ERK1 = biological target: T28, ERK1 (Homo sapiens, UniProt P27361)
T28 construct: purchased DiscoveRx KINOMEscan

LYN = biological target: T29, LYN (Homo sapiens, UniProt P07948)
T29 construct: purchased DiscoveRx KINOMEscan

TNNI3K = biological target: T30, TNNI3K (Homo sapiens, UniProt Q59H18)
T30 construct: purchased DiscoveRx KINOMEscan

PIK3CA(H1047L) = biological target: T31, PIK3CA(H1047L) (Homo sapiens, UniProt P42336, H1047L)
T31 construct: purchased DiscoveRx KINOMEscan

TAOK2 = biological target: T32, TAOK2 (Homo sapiens, UniProt Q9UL54)
T32 construct: purchased DiscoveRx KINOMEscan

PRKR = biological target: T33, PRKR (Homo sapiens, UniProt P19525)
T33 construct: purchased DiscoveRx KINOMEscan

VPS34 = biological target: T34, VPS34 (Homo sapiens, UniProt Q8NEB9)
T34 construct: purchased DiscoveRx KINOMEscan

PAK1 = biological target: T35, PAK1 (Homo sapiens, UniProt Q13153)
T35 construct: purchased DiscoveRx KINOMEscan

PAK7 = biological target: T36, PAK7 (Homo sapiens, UniProt Q9P286)
T36 construct: purchased DiscoveRx KINOMEscan
T36 sequence (Q9P286 whole entry): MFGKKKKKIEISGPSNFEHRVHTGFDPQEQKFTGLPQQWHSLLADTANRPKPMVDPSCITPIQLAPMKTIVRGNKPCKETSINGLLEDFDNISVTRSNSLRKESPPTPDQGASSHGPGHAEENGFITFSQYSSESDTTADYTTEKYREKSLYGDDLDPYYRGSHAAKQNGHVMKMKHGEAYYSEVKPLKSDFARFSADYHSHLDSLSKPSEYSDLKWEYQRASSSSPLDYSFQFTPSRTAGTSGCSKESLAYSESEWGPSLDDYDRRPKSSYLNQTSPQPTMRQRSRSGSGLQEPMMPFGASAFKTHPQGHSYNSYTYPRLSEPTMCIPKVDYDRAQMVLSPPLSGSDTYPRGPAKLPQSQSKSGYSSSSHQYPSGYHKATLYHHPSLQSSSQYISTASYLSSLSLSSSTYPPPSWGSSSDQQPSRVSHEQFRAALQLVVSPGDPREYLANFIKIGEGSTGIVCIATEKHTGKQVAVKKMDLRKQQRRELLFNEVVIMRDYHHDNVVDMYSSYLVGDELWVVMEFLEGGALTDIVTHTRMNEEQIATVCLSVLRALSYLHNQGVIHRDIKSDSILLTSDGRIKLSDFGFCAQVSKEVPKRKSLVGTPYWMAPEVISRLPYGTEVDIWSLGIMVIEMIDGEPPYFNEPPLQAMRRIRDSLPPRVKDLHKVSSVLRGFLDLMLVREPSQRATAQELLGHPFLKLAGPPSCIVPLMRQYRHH

MAP3K1 = biological target: T37, MAP3K1 (Homo sapiens, UniProt Q13233)
T37 construct: purchased DiscoveRx KINOMEscan
T37 sequence (Q13233 whole entry): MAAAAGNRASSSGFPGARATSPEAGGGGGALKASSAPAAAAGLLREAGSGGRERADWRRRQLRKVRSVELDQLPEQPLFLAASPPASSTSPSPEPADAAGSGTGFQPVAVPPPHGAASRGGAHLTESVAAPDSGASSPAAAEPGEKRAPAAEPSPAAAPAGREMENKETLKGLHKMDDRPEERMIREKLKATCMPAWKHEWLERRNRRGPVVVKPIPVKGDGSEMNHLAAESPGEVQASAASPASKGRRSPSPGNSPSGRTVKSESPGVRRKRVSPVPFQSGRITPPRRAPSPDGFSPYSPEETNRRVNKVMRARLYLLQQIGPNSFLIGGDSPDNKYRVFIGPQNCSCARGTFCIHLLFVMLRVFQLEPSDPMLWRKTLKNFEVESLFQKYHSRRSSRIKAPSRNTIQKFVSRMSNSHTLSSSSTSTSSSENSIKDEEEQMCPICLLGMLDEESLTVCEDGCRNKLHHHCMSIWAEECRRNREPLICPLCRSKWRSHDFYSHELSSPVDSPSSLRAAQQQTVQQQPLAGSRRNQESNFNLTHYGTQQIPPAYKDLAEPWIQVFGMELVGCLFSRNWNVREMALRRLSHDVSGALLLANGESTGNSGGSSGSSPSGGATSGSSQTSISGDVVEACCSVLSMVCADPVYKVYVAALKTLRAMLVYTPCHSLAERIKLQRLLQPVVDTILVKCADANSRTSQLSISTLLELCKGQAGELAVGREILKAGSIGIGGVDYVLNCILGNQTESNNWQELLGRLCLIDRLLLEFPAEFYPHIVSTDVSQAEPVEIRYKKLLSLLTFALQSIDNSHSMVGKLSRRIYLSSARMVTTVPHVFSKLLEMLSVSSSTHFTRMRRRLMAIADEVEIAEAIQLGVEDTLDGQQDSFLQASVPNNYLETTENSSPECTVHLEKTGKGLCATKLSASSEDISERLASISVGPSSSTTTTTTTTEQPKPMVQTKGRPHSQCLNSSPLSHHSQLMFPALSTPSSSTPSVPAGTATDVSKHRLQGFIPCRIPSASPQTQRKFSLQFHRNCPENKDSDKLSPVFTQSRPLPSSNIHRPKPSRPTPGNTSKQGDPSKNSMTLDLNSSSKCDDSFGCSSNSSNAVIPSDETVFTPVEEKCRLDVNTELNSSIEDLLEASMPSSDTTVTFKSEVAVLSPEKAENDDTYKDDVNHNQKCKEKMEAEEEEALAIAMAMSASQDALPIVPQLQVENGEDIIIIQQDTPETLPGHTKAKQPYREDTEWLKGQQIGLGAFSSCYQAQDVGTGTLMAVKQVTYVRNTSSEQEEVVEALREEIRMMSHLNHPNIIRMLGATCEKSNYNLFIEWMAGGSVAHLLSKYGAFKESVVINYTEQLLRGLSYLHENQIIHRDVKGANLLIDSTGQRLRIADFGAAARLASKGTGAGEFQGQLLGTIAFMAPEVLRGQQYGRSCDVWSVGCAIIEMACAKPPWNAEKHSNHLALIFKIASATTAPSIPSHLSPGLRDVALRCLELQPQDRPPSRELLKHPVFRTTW

MAK = biological target: T38, MAK (Homo sapiens, UniProt P20794)
T38 construct: purchased DiscoveRx KINOMEscan

CTK = biological target: T39, CTK (Homo sapiens, UniProt P42679)
T39 construct: purchased DiscoveRx KINOMEscan

PIK3CA(E545K) = biological target: T40, PIK3CA(E545K) (Homo sapiens, UniProt P42336, E545K)
T40 construct: purchased DiscoveRx KINOMEscan

MYLK2 = biological target: T41, MYLK2 (Homo sapiens, UniProt Q9H1R3)
T41 construct: purchased DiscoveRx KINOMEscan

CN1CCC(CNc2ccc3ncc(C(=O)Nc4cccc(OC(F)(F)F)c4)n3n2)CC1 [Cpd 2]
remaining binding at 1 µM (FLT3(D835H)): 74%
remaining binding at 1 µM (EPHA5): 100%
remaining binding at 1 µM (ACVRL1): 100%
remaining binding at 1 µM (ZAK): 96%
remaining binding at 1 µM (MAP4K3): 95%
remaining binding at 1 µM (CLK2): 81%
remaining binding at 1 µM (SRPK1): 95%
remaining binding at 1 µM (NEK6): 100%
remaining binding at 1 µM (CDK3): 85%
remaining binding at 1 µM (ABL1(H396P)-nonP): 93%
remaining binding at 1 µM (PIM3): 18%
remaining binding at 1 µM (DYRK1B): 92%
remaining binding at 1 µM (ERK8): 96%
remaining binding at 1 µM (MYO3A): 91%
remaining binding at 1 µM (PIM1): 5%
remaining binding at 1 µM (CSK): 100%
remaining binding at 1 µM (FYN): 96%
remaining binding at 1 µM (PRKG2): 100%
remaining binding at 1 µM (CLK4): 100%
remaining binding at 1 µM (MLK3): 100%
remaining binding at 1 µM (NDR1): 89%
remaining binding at 1 µM (NDR2): 91%
remaining binding at 1 µM (JAK2(JH1D.-cat.)): 96%
remaining binding at 1 µM (KIT(L576P)): 88%
remaining binding at 1 µM (ERBB4): 100%
remaining binding at 1 µM (LIMK2): 99%
remaining binding at 1 µM (MLK1): 95%
remaining binding at 1 µM (ULK2): 100%
remaining binding at 1 µM (MUSK): 99%
remaining binding at 1 µM (ERK1): 100%
remaining binding at 1 µM (LYN): 98%
remaining binding at 1 µM (TNNI3K): 100%
remaining binding at 1 µM (PIK3CA(H1047L)): 93%
remaining binding at 1 µM (TAOK2): 100%
remaining binding at 1 µM (PRKR): 83%
remaining binding at 1 µM (VPS34): 75%
remaining binding at 1 µM (PAK1): 100%
remaining binding at 1 µM (PAK7): 90%
remaining binding at 1 µM (MAP3K1): 100%
remaining binding at 1 µM (MAK): 94%
remaining binding at 1 µM (CTK): 70%
remaining binding at 1 µM (PIK3CA(E545K)): 87%
remaining binding at 1 µM (MYLK2): 97%
